For one series, the target named is T1, F1F0 ATP hydrolase (Bos taurus, UniProt P00829+P19483).
T1 construct: from tissue; host or cells: sub-mitochondrial particles (SMPs)
To be noted: cited from earlier work.

The test system of series [1] is 59 cancer cell lines (NCI-60). In words: NCI-60 one-dose in vitro assay. The class given is cell-based, human. The source says: FIGS. 1, 2, 3, 4, 5, 6, 7, 8 show results from the NCI-60 one-dose in vitro assay at the Developmental Therapeutics Program (DTP), at the National Cancer Institute (NCI, Bethesda, MD, USA). Its protocol is well known to those of the art, and it tests the effect, if any, of a test compound on the growth/survivability of a cancer cell line as compared to the no compound control. […] However, a constant is that there is always representative cell lines from leukemia, melanoma and cancers of the lung, colon, brain, ovary, breast, prostate and kidney. In a one-dose NCI compound test report, NCI report a number for each cell line, which they call “Growth Percent”, which is its growth relative to the no-compound control, and relative to the time zero number of cells. This reported parameter allows detection of both growth inhibition (values between 0 and 100) and lethality (values less than 0). For example, an NCI “Growth Percent” value of 100 means no growth inhibition. Value of 40 means 60% growth inhibition. Value of 0 means no net growth over the course of the experiment. Value of −40 means 60% lethality. Value of −100 means all cells are dead. I don't present NCI one-dose data in this original format. Instead, if the NCI “Growth Percent” value for a cell is positive, it is manipulated: [100 minus this original NCI-60 “Growth Percent” data point], to yield the percentage “Growth Inhibition”. If the original NCI “Growth Percent” value for a cell is negative, it is made positive to be the percentage of original cancer cells (at time zero) killed: “Percentage Killed” {and in these cases, of course, all growth has been inhibited, so percentage “Growth Inhibition” is then specified to be 100% for this cancer cell line}. In my one-dose figures, “Growth Inhibition” (0-100%) is presented on the x-axis and, if applicable, “Percentage Killed” (0-100%) further along on the x-axis. The latter is applicable when there is not just cancer growth inhibition but a reduction in the number of cancer cells from the start time i.e. when the compound is not merely slowing cancer growth, but is actively reducing the number of cancer cells from the starting number. In cases where there is only growth inhibition, only “Growth inhibition” is presented on the x-axis.
NCI-60 tests are performed at a controlled temperature of 37° C..
To perform the anti-cancer testing reported: BMS-199264 hydrochloride was purchased from Sigma-Aldrich. BTB06584 was purchased from AdooQ Bioscience, Irvine, CA, USA. Compounds 19a (separated into 6a and 6b stereoisomers) and 31 were synthesized by reaction schemes disclosed herein. Almitrine dimesylate was purchased from Ak Scientific, Palo Alto, CA, USA.

The target of the next series is T2, F1F0-ATP hydrolysis (Homo sapiens, UniProt P06576+P25705).
T2 construct: BTB06584 potency information (is not an EC50) is from a whole cell study [13]; endogenous in cells
Particulars: cited from earlier work.

For series [2] the following is noted: cited from earlier work.
For series [3] the following is noted: cited from earlier work. The source holds these as a separate data set.
Where [4] appears, read: from [8], Formula (II), read-out: EC50 F1F0 ATP hydrolase.

Entries after “also recorded” stand apart in the source; their conditions may differ. Where a name gives a salt, the structure may show the parent alone. Read-outs that look alike come from different tables or passages of the source. Some results are limits rather than exact numbers.

As for `O=S(=O)(c1cc(Cl)ccc1Cl)N1Cc2ccccc2N(Cc2cnc[nH]2)C(CCc2ccccc2)C1` (centres unmarked) [2,5-di-Cl—Ph, SO2,5-yl], the EC50 at F1F0 ATP hydrolase (setting [4]) was 158 nM. Take `N#CN=C(Nc1ccccc1Cl)NC(Cn1ccnc1)c1ccc(Cl)cc1Cl` (centres unmarked) [2-Cl, CN]: the EC50 on F1F0 ATP hydrolase (Further Examples [5], Formula (I), read-out: EC50 F1F0 ATP hydrolase) is 2230 nM. Regarding `N#Cc1ccc(S(=O)(=O)N2Cc3ccccc3N(Cc3c[nH]cn3)C(CCc3ccccc3)C2)c(Cl)c1` (centres unmarked) [2-Cl-4-CN—Ph, SO2,5-yl], the EC50 at F1F0 ATP hydrolase (setting [4]) is 939 nM. In the case of `O=[N+]([O-])c1cccc(S(=O)(=O)N2Cc3ccccc3N(Cc3cnc[nH]3)C(CCc3ccccc3)C2)c1` (centres unmarked) [3-NO2—Ph, SO2,5-yl], the EC50 at F1F0 ATP hydrolase (setting [4]) is 423 nM. On to `N#Cc1ccc(S(=O)(=O)N2Cc3ccccc3N(Cc3cnc[nH]3)C(CCc3ccccc3)C2)cc1` (centres unmarked) [4-CN—Ph, SO2,5-yl], for which the EC50 on F1F0 ATP hydrolase (setting [4]) is 255 nM. `Cc1nc(CN2c3ccccc3CN(S(=O)(=O)c3ccc(F)cc3)CC2CCc2ccccc2)c[nH]1` (centres unmarked) [4-F—Ph, SO2,2-Me-5-yl]: the EC50 at F1F0 ATP hydrolase (setting [4]) is 9620 nM.

Turning to `Cc1nc[nH]c1CN1c2ccccc2CN(S(=O)(=O)c2ccc(F)cc2)CC1CCc1ccccc1` (centres unmarked) [4-F—Ph, SO2,4-Me-5-yl], on F1F0 ATP hydrolase (setting [4]), the EC50 is 151 nM. In the case of `O=S(=O)(c1ccc(F)cc1)N1Cc2ccccc2N(Cc2c[nH]cn2)C(CCc2ccccc2)C1` (centres unmarked) [4-F—Ph, SO2,5-yl], at F1F0 ATP hydrolase (setting [4]), the EC50 was 221 nM. As for `O=S(=O)(c1ccc(O)cc1)N1Cc2ccccc2N(Cc2cnc[nH]2)C(CCc2ccccc2)C1` (centres unmarked) [4-OH—Ph, SO2,5-yl], the EC50 on F1F0 ATP hydrolase (setting [4]) is 667 nM. Turning to `COc1ccc(S(=O)(=O)N2Cc3ccccc3N(Cc3c[nH]cn3)C(CCc3ccccc3)C2)cc1` (centres unmarked) [4-OMe—Ph, SO2,5-yl], at F1F0 ATP hydrolase (setting [4]), the EC50 is 77 nM.

Take `Cc1nc[nH]c1CN1c2ccccc2CN(Cc2ccc(C(C)(C)C)cc2)CC1CCc1ccccc1` (centres unmarked) [4-t-Bu—Ph, CH2,4-Me-5-yl]: at F1F0 ATP hydrolase (setting [4]), the EC50 was 2350 nM.

`CC(C)(C)c1ccc(CN2Cc3ccccc3N(Cc3cnc[nH]3)C(CCc3ccccc3)C2)cc1` (centres unmarked) [4-t-Bu—Ph, CH2,5-yl]: on F1F0 ATP hydrolase (setting [4]), the EC50 was 2140 nM. For the molecule `CC(C)(C)c1ccc(S(=O)(=O)N2Cc3ccccc3N(Cc3ncc[nH]3)C(CCc3ccccc3)C2)cc1` (centres unmarked) [4-t-Bu—Ph, SO2,2-yl], the EC50 on F1F0 ATP hydrolase (setting [4]) was greater than 10000 nM. Consider `CC(C)(C)c1ccc(S(=O)(=O)N2Cc3ccccc3N(Cc3c[nH]cn3)C(CCc3ccccc3)C2)cc1` (centres unmarked) [4-t-Bu—Ph, SO2,5-yl], for which the EC50 at F1F0 ATP hydrolase (setting [4]) is 8 nM. In the case of `CC1(C)Oc2ccc(S(=O)(=O)N3CCCCC3)cc2[C@@H](N(Cc2ncc[nH]2)c2ccc(Cl)cc2)[C@@H]1O.Cl` [BMS-199264 hydrochloride], the “anti-cancer activity (in words)” value in series [1] (10 μM) and in series [1] (100 μM) was “Anti-cancer activity” in each case. On to `O=C(Oc1cc(S(=O)(=O)c2ccccc2)ccc1[N+](=O)O)c1ccc(Cl)cc1` [BTB06584], for which the “anti-cancer activity (in words)” value in series [1] (10 μM) was “none and No anti-cancer activity”; in series [1] (100 μM) it was “observed; also recorded: Anti-cancer activity”. In addition, on F1F0-ATP hydrolysis (10 μM [13]), the “inhibitory potency for F1F0-ATP hydrolysis (in words)” value is “none”. In addition, at F1F0-ATP hydrolysis (whole cell study [13], not an EC50), the “concentration required to inhibit F1F0-ATP hydrolysis” value was greater than 100 µM. Regarding `O=S(=O)(c1cccc2nonc12)N1Cc2ccccc2N(Cc2cnc[nH]2)C(CCc2ccccc2)C1` (centres unmarked) [Benzofurazan-7-yl, SO2,5-yl], on F1F0 ATP hydrolase (setting [4]), the EC50 is 1780 nM. With `O=S(=O)(Cc1ccccc1)N1Cc2ccccc2N(Cc2c[nH]cn2)C(CCc2ccccc2)C1` (centres unmarked) [Bn, SO2,5-yl], on F1F0 ATP hydrolase (setting [4]), the EC50 was 2410 nM.

As to `O=S(=O)(N1Cc2ccccc2N(Cc2c[nH]cn2)C(CCc2ccccc2)C1)C(F)(F)F` (centres unmarked) [CF3, SO2,5-yl], the EC50 on F1F0 ATP hydrolase (setting [4]) was 77 nM. For the molecule `N#Cc1cccc(C(=O)/N=C(\Nc2ccc(Cl)cc2)NC(Cn2ccnc2)c2ccc(Cl)cc2Cl)c1` (centres unmarked) [Compound 19a], the EC50 on F1F0 ATP hydrolase (SMP studies in [5-8], read-out: EC50 F1F0 ATP hydrolysis / hydrolase) is 33 nM. `O=S(=O)(c1cccc2ccccc12)N1Cc2ccccc2N(Cc2cnc[nH]2)C(CCc2ccccc2)C1` (centres unmarked) [Naphth-1-y1, SO2,5-yl]: the EC50 at F1F0 ATP hydrolase (setting [4]) was 338 nM. Regarding `O=S(=O)(c1ccccc1)N1Cc2ccccc2N(Cc2cnc[nH]2)C(CCc2ccccc2)C1` (centres unmarked) [Ph, SO2,5-yl], the EC50 at F1F0 ATP hydrolase (setting [4]) is 282 nM.

On to `O=S(=O)(c1cccc2cccnc12)N1Cc2ccccc2N(Cc2c[nH]cn2)C(CCc2ccccc2)C1` (centres unmarked) [Quinolin-8-yl, SO2,5-yl], for which, on F1F0 ATP hydrolase (setting [4]), the EC50 is 2930 nM. Take `O=S(=O)(c1cccs1)N1Cc2ccccc2N(Cc2cnc[nH]2)C(CCc2ccccc2)C1` (centres unmarked) [Thiophen-2-yl, SO2,5-yl]: at F1F0 ATP hydrolase (setting [4]), the EC50 was 636 nM.

In general, LD50 refers to the dose expected to kill half of the subjects tested. Consider `N.N.O=C([O-])C1(C(=O)[O-])CCC1.[Pt+2]` [carboplatin], for which the median lethal dose (LD50) in series [2] (mice, intraperitoneal injection (IP)) is listed as 118 mg/kg. Turning to `CN(C)CCCN1c2ccccc2CCc2ccc(Cl)cc21` [clomipramine HCl], the “LD50 {mouse, IV}” value in series [2] (mouse, in vivo, iv) is listed as 22 mg/kg. Consider `CC[C@H]1/C=C/C=C/C[C@@H](C)[C@H](O)[C@@](C)(O)C(=O)[C@@H](C)[C@H](O)[C@@H](C)C(=O)[C@@H](C)[C@H](O)[C@@H](C)/C=C/C(=O)O[C@@H]2[C@H](C)[C@H](CC1)O[C@]1(CC[C@H](C)[C@H](C[C@@H](C)O)O1)[C@H]2C` [oligomycin], for which the “time within which healthy rats are killed” value in series [3] (1 mg/kg intraperitoneal, n=10 [15]) is no more than 48 h. Also, the LD33 in series [3] (healthy rats, intraperitoneal injection [15]) is reported as 0.5 mg/kg.

The values above are taken from patent publication US12337000B2, “Therapeutic modulators of the reverse mode of ATP synthase” (priority 2017, dated 2025).
